According to ChEMBL document CHEMBL5321235, “Design, synthesis, and SAR study of novel flavone 1,2,4-oxadiazole derivatives with anti-inflammatory activities for the treatment of Parkinson's disease” (Eur J Med Chem, 2023):
Calls of active or inactive are those of the source. No cut-off for these calls is given here.

Experiments:
[1] = test system: BV-2; test: Antiinflammatory activity in mouse BV-2 cells assessed as inhibition of LPS-induced NO production at 5 uM pretreated for 18 hrs followed by LPS-induction and measured after 6 hrs relative to control; format: functional; parameters: scale not given: the % may be the effect or the level left; settings: time 24 hrs
[2] = test system: BV-2; test: Inhibition of LPS-induced ROS production in mouse BV-2 cells at 5 uM pretreated for 18 hrs followed by LPS-stimulation and measured after 6 hrs by fluorescence microscopic analysis; format: functional, cell-based; settings: time 24.0 hrs
[3] = test system: BV-2; test: Cytotoxicity against mouse BV-2 cells assessed as reduction in cell viability at 5 uM pretreated for 18 hrs followed by LPS-stimulation and measured after 6 hrs by MTT assay; format: toxicity, cell-based; settings: bv-2, 24 h
[4] = test system: BV-2; test: Cytotoxicity against mouse BV-2 cells assessed as reduction in cell viability at 10 uM pretreated for 18 hrs followed by LPS-stimulation and measured after 6 hrs by MTT assay; format: toxicity, cell-based; settings: bv-2, 24 h
[5] = test system: Mus musculus; test: Antiinflammatory activity in C57BL/6J mouse assessed as inhibition of MPTP-induced p38 phosphorylation at 15 mg/kg, ip administered with compound once daily for 2 weeks followed by MPTP addition on day 8 and measured after 2 weeks of compound addition Western blot analysis; format: functional, organism-based
[6] = test system: BV-2; test: Induction of apoptosis in LPS-induced mouse BV-2 cells assessed as increase in BAX expression at 5 to 10 uM pretreated for 18 hrs followed by LPS-stimulation and measured after 6 hrs by Western blot analysis; format: functional, cell-based; settings: dose 5-10 µM, time 24.0 hrs
[7] = test system: Microglia; test: (§1) Neuroprotective activity against MPTP-induced apoptosis in mouse microglia assessed as increase in Caspase3 expression in brain tissue at 15 mg/kg, ip administered with compound once daily for 2 weeks followed by MPTP addition on day 8 and measured after 2 weeks of compound addition by Western blot analysis; format: functional, organism-based
[8] = test system: BV-2; test: Antiinflammatory activity in LPS-induced mouse BV-2 cells assessed as reduction in TNF-alpha mRNA expression at 5 to 10 uM pretreated for 18 hrs followed by LPS-stimulation and measured after 6 hrs by qRT-PCR analysis; format: functional, cell-based; settings: dose 5-10 µM, time 24.0 hrs
[9] = test system: Mus musculus; test: Antiinflammatory activity in C57BL/6J mouse assessed as inhibition of MPTP-induced NF-kappaB phosphorylation at 15 mg/kg, ip administered with compound once daily for 2 weeks followed by MPTP addition on day 8 and measured after 2 weeks of compound addition Western blot analysis; format: functional, organism-based
[10] = test system: BV-2; test: Inhibition of LPS-induced ERK phosphorylation in mouse BV-2 cells at 5 to 10 uM pretreated for 12 hrs followed by LPS-stimulation and measured after 6 hrs by Western blot analysis; format: cell-based; settings: dose 5-10 µM, time 18.0 hrs
[11] = test system: BV-2; test: Antiinflammatory activity in LPS-induced mouse BV-2 cells assessed as reduction in IL-6 mRNA expression at 5 to 10 uM pretreated for 18 hrs followed by LPS-stimulation and measured after 6 hrs by qRT-PCR analysis; format: functional, cell-based; settings: dose 5-10 µM, time 24.0 hrs
[12] = test system: Microglia; test: as §1, with “reduction” for “increase”, “apoptotic cells” for “Caspase3 expression”, “TUNEL staining based immunofluorescence” for “Western blot”; format: functional, organism-based
[13] = test system: Mus musculus; test: Antiinflammatory activity in C57BL/6J mouse assessed as inhibition of MPTP-induced ERK phosphorylation at 15 mg/kg, ip administered with compound once daily for 2 weeks followed by MPTP addition on day 8 and measured after 2 weeks of compound addition Western blot analysis; format: functional, organism-based
[14] = test system: BV-2; test: Induction of apoptosis in LPS-induced mouse BV-2 cells assessed as increase in cleaved Caspase-3 expression at 5 to 10 uM pretreated for 18 hrs followed by LPS-stimulation and measured after 6 hrs by immunofluorescence analysis; format: functional, cell-based; settings: dose 5-10 µM, time 24.0 hrs
[15] = test system: BV-2; test: Induction of apoptosis in LPS-induced mouse BV-2 cells assessed as increase in Caspase3 expression at 5 to 10 uM pretreated for 18 hrs followed by LPS-stimulation and measured after 6 hrs by immunofluorescence analysis; format: functional, cell-based; settings: dose 5-10 µM, time 24.0 hrs
[16] = biological target: MAP kinase p38 (Mus musculus) (UniProt P47811+O08911+Q9WUI1+Q9Z1B7); test: Inhibition of LPS-induced p38 phosphorylation in mouse BV-2 cells at 5 to 10 uM pretreated for 12 hrs followed by LPS-stimulation and measured after 6 hrs by Western blot analysis; format: cell-based; settings: dose 5-10 µM, time 18.0 hrs
[17] = test system: BV-2; test: Induction of apoptosis in mouse LPS-induced BV-2 cells assessed as increase in Bcl-2 expression at 5 to 10 uM pretreated for 18 hrs followed by LPS-stimulation and measured after 6 hrs by Western blot analysis; format: functional, cell-based; settings: dose 5-10 µM, time 24.0 hrs
[18] = test system: BV-2; test: Induction of apoptosis in LPS-induced mouse BV-2 cells assessed as increase in Bcl-2 expression at 5 to 10 uM pretreated for 18 hrs followed by LPS-stimulation and measured after 6 hrs by immunofluorescence analysis; format: functional, cell-based; settings: dose 5-10 µM, time 24.0 hrs
[19] = test system: BV-2; test: Induction of apoptosis in LPS-induced mouse BV-2 cells assessed as increase in BAX mRNA expression at 5 to 10 uM pretreated for 18 hrs followed by LPS-stimulation and measured after 6 hrs by qRT-PCR analysis; format: functional, cell-based; settings: dose 5-10 µM, time 24.0 hrs
[20] = test system: BV-2; test: Antiinflammatory activity in LPS-induced mouse BV-2 cells assessed as increase in Arg-1 mRNA expression at 5 to 10 uM pretreated for 18 hrs followed by LPS-stimulation and measured after 6 hrs by qRT-PCR analysis; format: functional, cell-based; settings: dose 5-10 µM, time 24.0 hrs
[21] = test system: Mus musculus; test: Anti-parkinson activity in MPTP-induced C57BL/6J mouse model assessed as increase in locomotion at 15 to 35 mg/kg, ip administered with compound once daily for 2 weeks followed by MPTP addition on day 8 and measured after 2 weeks of compound addition by open field test; format: functional, organism-based; settings: dose 15-35 mg/kg
[22] = test system: BV-2; test: Inhibition of LPS-induced NF-kappaB nuclear translocation in mouse BV-2 cells at 5 to 10 uM pretreated for 18 hrs followed by LPS-stimulation and measured after 6 hrs by immunofluorescence analysis; format: cell-based; settings: dose 5-10 µM, time 24.0 hrs
[23] = test system: BV-2; test: Inhibition of NF-kappaB activation in LPS-stimulated mouse BV-2 cells assessed as increase in IkappaBalpha expression at 5 to 10 uM pretreated for 18 hrs followed by LPS-stimulation and measured after 6 hrs by Western blot analysis; format: cell-based; settings: dose 5-10 µM, time 24.0 hrs
[24] = test system: BV-2; test: Antiinflammatory activity in LPS-induced mouse BV-2 cells assessed as reduction in CD86 mRNA expression at 5 to 10 uM pretreated for 18 hrs followed by LPS-stimulation and measured after 6 hrs by qRT-PCR analysis; format: functional, cell-based; settings: dose 5-10 µM, time 24.0 hrs
[25] = test system: BV-2; test: Antiinflammatory activity in LPS-induced mouse BV-2 cells assessed as increase in CD206 mRNA expression at 5 to 10 uM pretreated for 18 hrs followed by LPS-stimulation and measured after 6 hrs by qRT-PCR analysis; format: functional, cell-based; settings: dose 5-10 µM, time 24.0 hrs
[26] = test system: Mus musculus; test: Anti-parkinson activity in MPTP-induced C57BL/6J mouse model at 15 to 35 mg/kg, ip administered with compound once daily for 2 weeks followed by MPTP addition on day 8 and measured after 2 weeks of compound addition by rotarod test; format: functional, organism-based; settings: dose 15-35 mg/kg
[27] = test system: BV-2; test: Induction of apoptosis in mouse LPS-induced BV-2 cells assessed as increase in cleaved Caspase-3 expression at 5 to 10 uM pretreated for 18 hrs followed by LPS-stimulation and measured after 6 hrs by Western blot analysis; format: functional, cell-based; settings: dose 5-10 µM, time 24.0 hrs
[28] = test system: Microglia; test: Neuroprotective activity against MPTP-induced apoptosis in mouse microglia assessed as […] expression in brain tissue at 15 mg/kg, ip administered with compound once daily for 2 weeks followed by MPTP addition on day 8 and measured after 2 weeks of compound addition; format: functional, organism-based
[29] = test system: BV-2; test: Antiinflammatory activity in LPS-induced mouse BV-2 cells assessed as reduction in IL-1beta mRNA expression at 5 to 10 uM pretreated for 18 hrs followed by LPS-stimulation and measured after 6 hrs by qRT-PCR analysis; format: functional, cell-based; settings: dose 5-10 µM, time 24.0 hrs
[30] = test system: Mus musculus; test: Antiinflammatory activity in MPTP-induced C57BL/6J mouse assessed as increase in IL-10 expression at 15 mg/kg, ip administered with compound once daily for 2 weeks followed by MPTP addition on day 8 and measured after 2 weeks of compound addition Western blot analysis; format: functional, organism-based
[31] = test system: BV-2; test: Induction of apoptosis in LPS-induced mouse BV-2 cells assessed as increase in Bcl-2 mRNA expression at 5 to 10 uM pretreated for 18 hrs followed by LPS-stimulation and measured after 6 hrs by qRT-PCR analysis; format: functional, cell-based; settings: dose 5-10 µM, time 24.0 hrs
[32] = test system: Microglia; test: as §1, with “BAX” for “Caspase3”; format: functional, organism-based
[33] = test system: BV-2; test: Induction of apoptosis in LPS-induced mouse BV-2 cells assessed as increase in BAX expression at 5 to 10 uM pretreated for 18 hrs followed by LPS-stimulation and measured after 6 hrs by immunofluorescence analysis; format: functional, cell-based; settings: dose 5-10 µM, time 24.0 hrs
[34] = test system: BV-2; test: Antiinflammatory activity in LPS-induced mouse BV-2 cells assessed as increase in IL-10 mRNA expression at 5 to 10 uM pretreated for 18 hrs followed by LPS-stimulation and measured after 6 hrs by qRT-PCR analysis; format: functional, cell-based; settings: dose 5-10 µM, time 24.0 hrs
[35] = test system: BV-2; test: Induction of apoptosis in LPS-induced mouse BV-2 cells assessed as increase in Caspase3 expression at 5 to 10 uM pretreated for 18 hrs followed by LPS-stimulation and measured after 6 hrs by Western blot analysis; format: functional, cell-based; settings: dose 5-10 µM, time 24.0 hrs
[36] = test system: Microglia; test: as §1, with “Bcl2” for “Caspase3”; format: functional, organism-based
[37] = test system: BV-2; test: Induction of apoptosis in LPS-induced mouse BV-2 cells assessed as increase in Caspase3 mRNA expression at 5 to 10 uM pretreated for 18 hrs followed by LPS-stimulation and measured after 6 hrs by qRT-PCR analysis; format: functional, cell-based; settings: dose 5-10 µM, time 24.0 hrs
[38] = biological target: c-Jun N-terminal kinase (Mus musculus) (UniProt Q91Y86+Q9WTU6+Q61831); test: Inhibition of LPS-induced JNK phosphorylation in mouse BV-2 cells at 5 to 10 uM pretreated for 12 hrs followed by LPS-stimulation and measured after 6 hrs by Western blot analysis; format: cell-based; settings: dose 5-10 µM, time 18.0 hrs
Sequence of c-Jun N-terminal kinase (Mus musculus) (Q61831 whole entry, looked up): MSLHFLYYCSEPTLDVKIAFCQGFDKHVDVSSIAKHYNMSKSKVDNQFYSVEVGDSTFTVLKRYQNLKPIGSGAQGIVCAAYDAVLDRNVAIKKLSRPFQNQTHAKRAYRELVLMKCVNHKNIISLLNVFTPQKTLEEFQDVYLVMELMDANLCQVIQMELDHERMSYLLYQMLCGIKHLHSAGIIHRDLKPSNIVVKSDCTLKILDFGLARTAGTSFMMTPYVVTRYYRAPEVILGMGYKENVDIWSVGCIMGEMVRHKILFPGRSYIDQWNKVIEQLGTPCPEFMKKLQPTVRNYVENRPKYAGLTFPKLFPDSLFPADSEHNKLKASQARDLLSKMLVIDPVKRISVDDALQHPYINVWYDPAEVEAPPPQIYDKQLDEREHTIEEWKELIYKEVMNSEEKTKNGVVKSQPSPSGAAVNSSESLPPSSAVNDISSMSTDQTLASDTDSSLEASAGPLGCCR
Sequence of c-Jun N-terminal kinase (Mus musculus) (Q91Y86 whole entry, looked up): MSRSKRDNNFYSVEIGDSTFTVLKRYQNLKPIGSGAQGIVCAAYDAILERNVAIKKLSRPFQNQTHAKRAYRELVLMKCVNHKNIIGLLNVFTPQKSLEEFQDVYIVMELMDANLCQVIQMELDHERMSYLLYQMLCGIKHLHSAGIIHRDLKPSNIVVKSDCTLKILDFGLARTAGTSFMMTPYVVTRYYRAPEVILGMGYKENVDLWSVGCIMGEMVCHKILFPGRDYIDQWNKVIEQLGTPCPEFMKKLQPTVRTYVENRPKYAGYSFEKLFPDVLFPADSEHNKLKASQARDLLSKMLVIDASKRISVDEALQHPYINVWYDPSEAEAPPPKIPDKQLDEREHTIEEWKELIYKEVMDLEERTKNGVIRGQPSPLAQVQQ
Sequence of c-Jun N-terminal kinase (Mus musculus) (Q9WTU6 whole entry, looked up): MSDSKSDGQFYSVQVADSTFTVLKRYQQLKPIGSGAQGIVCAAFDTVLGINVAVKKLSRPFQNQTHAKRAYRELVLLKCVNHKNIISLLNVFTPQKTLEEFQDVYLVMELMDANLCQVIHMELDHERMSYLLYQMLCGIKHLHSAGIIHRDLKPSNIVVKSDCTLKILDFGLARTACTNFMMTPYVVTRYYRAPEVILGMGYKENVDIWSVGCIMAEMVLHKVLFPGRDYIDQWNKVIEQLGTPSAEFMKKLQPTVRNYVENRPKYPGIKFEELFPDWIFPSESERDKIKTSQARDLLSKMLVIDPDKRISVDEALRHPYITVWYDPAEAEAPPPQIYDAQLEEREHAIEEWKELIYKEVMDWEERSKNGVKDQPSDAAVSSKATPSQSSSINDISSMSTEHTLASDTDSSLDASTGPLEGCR

SMILES: Cc1c(-c2ccccc2)oc2c(-c3nc(-c4ccccc4)no3)cccc2c1=O
- Activity [1]: 22.4%
- inhibition [2]: Active

SMILES: COc1ccccc1-c1noc(-c2cccc3c(=O)c(C)c(-c4ccccc4)oc23)n1
- Activity [1]: 41.6%
- inhibition [2]: inactive

SMILES: Cc1ccccc1-c1noc(-c2cccc3c(=O)c(C)c(-c4ccccc4)oc23)n1
- Activity [1]: 22.4%
- inhibition [2]: Active

SMILES: COc1cccc(-c2noc(-c3cccc4c(=O)c(C)c(-c5ccccc5)oc34)n2)c1
- Activity [1]: 22.4%
- inhibition [2]: inactive

SMILES: Cc1c(-c2ccccc2)oc2c(-c3nc(-c4ccc(F)cc4)no3)cccc2c1=O
- Activity [1]: 41.6%
- inhibition [2]: Active
- Activity [3]: Non-Toxic
- Activity [4]: Non-Toxic

SMILES: Cc1c(-c2ccccc2)oc2c(-c3nc(-c4ccccc4F)no3)cccc2c1=O
- Activity [1]: 41.6%
- inhibition [2]: Active

SMILES: Cc1cccc(-c2noc(-c3cccc4c(=O)c(C)c(-c5ccccc5)oc34)n2)c1
- Activity [5]: Active
- Activity [6]: Active
- Activity [7]: Active
- Activity [1]: 64.2%
- Activity [8]: Active
- Activity [9]: Active
- inhibition [10]: Active
- inhibition [2]: Active
- Activity [11]: Active
- Activity [12]: Active
- Activity [13]: Active
- Activity [14]: Active
- Activity [15]: Active
- inhibition [16]: Active
- Activity [3]: Non-Toxic
- Activity [17]: Active
- Activity [18]: Active
- Activity [19]: Active
- Activity [20]: Active
- Activity [21]: Active
- inhibition [22]: Active
- inhibition [23]: Active
- Activity [24]: Active
- Activity [25]: Active
- Activity [4]: Non-Toxic
- Activity [26]: Active
- Activity [27]: Active
- Activity [28]: Active
- Activity [29]: Active
- Activity [30]: Active
- Activity [31]: Active
- Activity [32]: Active
- Activity [33]: Active
- Activity [34]: Active
- Activity [35]: Active
- Activity [36]: Active
- Activity [37]: Active
- inhibition [38]: Active

SMILES: COc1ccc(-c2noc(-c3cccc4c(=O)c(C)c(-c5ccccc5)oc34)n2)cc1
- Activity [1]: 22.4%
- inhibition [2]: Active

SMILES: CCc1ccc(-c2noc(-c3cccc4c(=O)c(C)c(-c5ccccc5)oc34)n2)cc1
- Activity [1]: 41.6%
- inhibition [2]: Active
